Measurements taken from paper PMC2804908 (Journal of medicinal chemistry, 2010).
“And” between values parts separate entries of the source, which are not always exact repeats. Identical values can stand only once. Like-named read-outs stand apart in the source and are kept apart here.

Key:
[1] = target: T1, hP2Y14 receptor (Homo sapiens, UniProt Q15391); test: P2Y14 receptor-inhibited accumulation of cAMP; type: cell-based; details: for EC50: read-out: EC50, hP2Y14, inhibition of cAMP formation, HEK-293 cells stably transfected with hP2Y14, mean ± standard error, N = 3, NE = no effect at 10 μM; for fold selectivity for P2Y14 in comparison to P2Y6: ratio of EC50 at hP2Y6 to EC50 at hP2Y14; for fold more potent than UDP 3 at the P2Y14 receptor / fold less potent than UDP 3 at the P2Y14 receptor: relative to compound 3; for agonist activity at the P2Y14 receptor (in words): HEK-293 cells expressing hP2Y14
T1 sequence (Q15391 1-338): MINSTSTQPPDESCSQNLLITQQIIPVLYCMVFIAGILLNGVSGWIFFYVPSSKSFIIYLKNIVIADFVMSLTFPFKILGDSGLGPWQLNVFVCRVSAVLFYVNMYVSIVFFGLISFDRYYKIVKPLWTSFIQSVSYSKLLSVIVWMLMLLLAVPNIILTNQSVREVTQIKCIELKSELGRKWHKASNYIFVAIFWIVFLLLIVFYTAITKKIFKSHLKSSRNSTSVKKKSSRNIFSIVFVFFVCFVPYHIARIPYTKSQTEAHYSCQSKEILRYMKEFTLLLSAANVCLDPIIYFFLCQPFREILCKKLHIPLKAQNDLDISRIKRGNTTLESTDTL

[2] = target: T2, hP2Y6 receptor (Homo sapiens, UniProt Q15077); test: P2Y6 receptor-stimulated PLC activity; type: cell-based; details: for agonist activity at the P2Y6 receptor (in words): at the concentrations tested
[3] = target: T2, hP2Y6 receptor; details: read-out: EC50, hP2Y6; stimulation of PLC, hP2Y6 in 1321N1 cells; footnote b; NE = no effect at 10 μM; ref Maruoka et al. 15, Besada et al. 17, Ko et al. 18; cited from earlier work

T2 sequence (Q15077 whole entry): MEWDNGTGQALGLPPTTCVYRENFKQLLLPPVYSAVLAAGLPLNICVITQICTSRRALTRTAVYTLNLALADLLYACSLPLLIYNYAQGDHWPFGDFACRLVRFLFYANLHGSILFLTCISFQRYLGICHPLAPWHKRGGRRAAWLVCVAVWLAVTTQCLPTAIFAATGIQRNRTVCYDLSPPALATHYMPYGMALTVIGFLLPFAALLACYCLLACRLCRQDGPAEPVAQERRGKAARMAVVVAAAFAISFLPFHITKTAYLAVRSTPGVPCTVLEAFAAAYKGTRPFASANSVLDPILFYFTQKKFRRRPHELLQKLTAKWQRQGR

O=c1ccn([C@@]23C[C@H]2[C@H](COP(=O)(O)OP(=O)(O)O)[C@@H](O)[C@H]3O)c(=O)[nH]1 [Compound 9, (S)-methanocarba UDP]
EC50 [1]: > 10 µM

O=c1ccn([C@@H]2O[C@H](COP(=O)(O)OP(=O)(O)O)[C@@H](O)[C@H]2O)c(=S)[nH]1 [Compound 4, 2-thio-UDP]
fold selectivity for P2Y14 in comparison to P2Y6 [1]: 233 fold
fold more potent than UDP 3 at the P2Y14 receptor [1]: 83 fold

COP(=O)(O)OP(=O)(O)OC[C@H]1O[C@@H](n2ccc(=O)[nH]c2=S)[C@H](O)[C@@H]1O.N [Compound 15, Diphosphoric acid 1-β-methyl ester 2-(2-thiouridine-5′-yl)ester]
fold selectivity for P2Y14 in comparison to P2Y6 [1]: > 180 fold

O=c1ccn([C@@H]2O[C@H](COP(=O)(O)OP(=O)(O)O)[C@@H](O)[C@H]2O)c(=O)[nH]1 [Compound 3, uridine-5′-diphosphate, reference compound]
agonist activity at the P2Y14 receptor (in words) [1]: moderately potent agonists
agonist activity at the P2Y14 receptor (in words) ([1]; listed as UDP): full agonist

N.O=c1ccn([C@@H]2O[C@H](COP(=O)(O)OP(=O)(O)OCC(O)CO)[C@@H](O)[C@H]2O)c(=O)[nH]1 (stereo partly drawn) [Compound 22, Diphosphoric acid 1-α-glycerol ester 2-(uridine-5′-yl)ester]
fold less potent than UDP 3 at the P2Y14 receptor [1]: 10 fold

C#CCCOP(=O)(O)OP(=O)(O)OC[C@H]1O[C@@H](n2ccc(=O)[nH]c2=O)[C@H](O)[C@@H]1O.CCN(CC)CC [Compound 20, Diphosphoric acid 1-β-(3-butynyl)ester 2-(uridine-5′-yl)ester]
fold less potent than UDP 3 at the P2Y14 receptor [1]: 2 fold

O=c1ccn([C@H]2[C@H](O)[C@H](O)[C@@]3(COP(=O)(O)OP(=O)(O)O)C[C@H]23)c(=O)[nH]1 [Compound 8, (N)-methanocarba UDP]
EC50 [1]: > 10 µM
EC50 ([2]; read-out: EC50, hP2Y6, stimulation of PLC, hP2Y6 stably expressed in 1321N1 cells, mean ± standard error, N = 3, >10,000 = <50% effect at 10 μM, NE = no effect at 10 μM): > 10 µM

O=c1[nH]c(=S)ccn1[C@@H]1O[C@H](COP(=O)(O)OP(=O)(O)O)[C@@H](O)[C@H]1O [Compound 5, 4-thio-UDP]
agonist activity at the P2Y14 receptor (in words) [1]: moderately potent agonists

O=c1[nH]c(=O)n([C@@H]2O[C@H](COP(=O)(O)C(F)(F)P(=O)(O)O)[C@@H](O)[C@H]2O)cc1I [Compound 13, 5-I-Up-CF2-p]
fold selectivity for P2Y14 in comparison to P2Y6 [1]: not selective

COP(=O)(O)OP(=O)(O)OC[C@H]1O[C@@H](n2ccc(=O)[nH]c2=O)[C@H](O)[C@@H]1O.N [Compound 14, Diphosphoric acid 1-β-methyl ester 2-(uridine-5′-yl)ester]
agonist activity at the P2Y14 receptor (in words) [1]: weakly activated
agonist activity at the P2Y6 receptor (in words) [2]: inactive

CCOP(=O)(O)OP(=O)(O)OC[C@H]1O[C@@H](n2ccc(=O)[nH]c2=S)[C@H](O)[C@@H]1O.N [Compound 17, Diphosphoric acid 1-β-ethyl ester 2-(2-thiouridine-5′-yl)ester]
fold selectivity for P2Y14 in comparison to P2Y6 [1]: > 200 fold and > 250 fold

CCCOP(=O)(O)OP(=O)(O)OC[C@H]1O[C@@H](n2ccc(=O)[nH]c2=S)[C@H](O)[C@@H]1O.N [Compound 18, Diphosphoric acid 1-β-propyl ester 2-(2-thiouridine-5′-yl)ester]
fold selectivity for P2Y14 in comparison to P2Y6 [1]: > 200 fold

CC(C)(C)OP(=O)(O)OP(=O)(O)OC[C@H]1O[C@@H](n2ccc(=O)[nH]c2=S)[C@H](O)[C@@H]1O.N [Compound 25, Diphosphoric acid 1-β-tert-butyl ester 2-(2-thiouridine-5′-yl)ester]
fold more potent than UDPG at the P2Y14 receptor ([1]; relative to UDPG 1): 11 fold
fold more potent than the corresponding 2-oxo analogue 24 at the P2Y14 receptor ([1]; relative to compound 24): 8 fold

CC(C)(C)OP(=O)(O)OP(=O)(O)OC[C@H]1O[C@@H](n2ccc(=O)[nH]c2=O)[C@H](O)[C@@H]1O [Compound 24, Diphosphoric acid 1-β-tert-butyl ester 2-(uridine-5′-yl)ester]
EC50 [2]: 10.8 µM

O=c1ccn([C@@H]2O[C@H](COP(=O)(O)C(F)(F)P(=O)(O)O)[C@@H](O)[C@H]2O)c(=O)[nH]1 [Compound 12, α,β-difluoromethylene UDP]
agonist activity at the P2Y6 receptor (in words) [2]: did not activate
EC50 [3]: > 10 µM

CO/N=c1\ccn([C@@H]2O[C@H](COP(=O)(O)OP(=O)(O)O)[C@@H](O)[C@H]2O)c(=O)[nH]1.Cl [Compound 7, N^4-OCH3-CDP]
fold less potent than UDP 3 at the P2Y14 receptor [1]: 20 fold

C#CCCOP(=O)(O)OP(=O)(O)OC[C@H]1O[C@@H](n2ccc(=O)[nH]c2=S)[C@H](O)[C@@H]1O.CCN(CC)CC [Compound 21, Diphosphoric acid 1-β-(3-butynyl) ester 2-(2-thiouridine-5′-yl)ester]
fold selectivity for P2Y14 in comparison to P2Y6 [1]: > 900 fold
fold more potent than UDP 3 at the P2Y14 receptor [1]: 16 fold

COP(=O)(O)OP(=O)(O)OC[C@H]1O[C@@H](n2ccc(=S)[nH]c2=O)[C@H](O)[C@@H]1O [Compound 16, Diphosphoric acid 1-β-methyl ester 2-(4-thiouridine-5′-yl)ester]
EC50 [1]: > 10 µM

N.N#CCCOP(=O)(O)OP(=O)(O)OC[C@H]1O[C@@H](n2ccc(=O)[nH]c2=O)[C@H](O)[C@@H]1O [Compound 19, Diphosphoric acid 1-β-(2-cyanoethyl)ester 2-(uridine-5′-yl)ester]
agonist activity at the P2Y14 receptor (in words) [1]: poorly tolerated
